In brackets after ≈: the same amount, converted by molar mass.
Legend:
Type in all cases: cell-based
S. aureus = assay: MIC values, S. aureus (Tables 1-4)
S. pneumo. = assay: MIC values, S. pneumo. (Tables 1-4)
E. faecalis = assay: MIC values, E. faecalis (Tables 1-4)
H. flu = test system: H. flu
E. coli = assay: MIC values, E. coli (Tables 1-4)

Structure (SMILES)	MIC S. aureus (S. aureus)	MIC S. pneumo. (S. pneumo.)	MIC E. faecalis (E. faecalis)	MIC H. flu (H. flu)	MIC E. coli (E. coli)
CO[C@H]1/C=C/O[C@@]2(C)Oc3c(C)c(O)c4c(=O)c(c5oc6cc(N7CCN(CC8CC8)CC7)cc(O)c6nc-5c4c3C2=O)NC(=O)/C(C)=C\C=C\[C@H](C)[C@H](O)[C@@H](C)[C@@H](O)[C@@H](C)[C@H](O)[C@@H]1C [Compound 99]	0.008 µg/mL (≈ 0.00892 µM)	0.0005 µg/mL (≈ 0.000557 µM)	0.06 µg/mL (≈ 0.0669 µM)	0.25 µg/mL (≈ 0.279 µM)	2 µg/mL (≈ 2.23 µM)
COC1C=COC2(C)Oc3c(C)c(O)c4c(=O)c(c5oc6cc(N7CC8CCCNC8C7)cc(O)c6nc-5c4c3C2=O)NC(=O)C(C)=CC=CC(C)C(O)C(C)C(O)C(C)C(O)C1C (stereo not shown) [Compound 144]	0.03 µg/mL (≈ 0.034 µM)	0.002 µg/mL (≈ 0.00226 µM)	0.25 µg/mL (≈ 0.283 µM)	1 µg/mL (≈ 1.13 µM)	>8 µg/mL
COC1C=COC2(C)Oc3c(C)c(O)c4c(=O)c(c5sc6cc(N7CCN8CCCC8C7)ccc6nc-5c4c3C2=O)NC(=O)C(C)=CC=CC(C)C(O)C(C)C(O)C(C)C(O)C1C (stereo not shown) [Compound 77]	0.002 µg/mL (≈ 0.00226 µM)	0.00025 µg/mL (≈ 0.000283 µM)	0.25 µg/mL (≈ 0.283 µM)	0.12 µg/mL (≈ 0.136 µM)	2 µg/mL (≈ 2.26 µM)
COC1C=COC2(C)Oc3c(C)c(O)c4c(=O)c(c5oc6cc(N7CC8CCCN(C(C)=O)C8C7)cc(O)c6nc-5c4c3C2=O)NC(=O)C(C)=CC=CC(C)C(O)C(C)C(O)C(C)C(OC(C)=O)C1C (stereo not shown) [Compound 47]	0.008 µg/mL (≈ 0.00827 µM)	0.002 µg/mL (≈ 0.00207 µM)	1 µg/mL (≈ 1.03 µM)	0.25 µg/mL (≈ 0.259 µM)	>8 µg/mL
CCOC(=O)NC1C2CN(c3cc(O)c4nc5c6c7c8c(C)c(O)c6c(=O)c(c-5oc4c3)NC(=O)C(C)=CC=CC(C)C(O)C(C)C(O)C(C)C(OC(C)=O)C(C)C(OC)C=COC(C)(O8)C7=O)CC21 (stereo not shown) [Compound 21]	0.004 µg/mL (≈ 0.00413 µM)	0.001 µg/mL (≈ 0.00103 µM)	0.12 µg/mL (≈ 0.124 µM)	0.5 µg/mL (≈ 0.516 µM)	4 µg/mL (≈ 4.13 µM)
CO[C@H]1/C=C/O[C@@]2(C)Oc3c(C)c(O)c4c(=O)c(c5oc6cccc(O)c6nc-5c4c3C2=O)NC(=O)/C(C)=C\C=C\[C@H](C)[C@H](O)[C@@H](C)[C@@H](O)[C@@H](C)[C@H](O)[C@@H]1C [Compound 136]	0.004 µg/mL (≈ 0.00527 µM)	0.002 µg/mL (≈ 0.00264 µM)	0.12 µg/mL (≈ 0.158 µM)	0.25 µg/mL (≈ 0.329 µM)	8 µg/mL (≈ 10.5 µM)
CO[C@H]1/C=C/O[C@@]2(C)Oc3c(C)c(O)c4c(=O)c(c5oc6cc(N7CCC(NC(C)=O)CC7)cc(O)c6nc-5c4c3C2=O)NC(=O)/C(C)=C\C=C\[C@H](C)[C@H](O)[C@@H](C)[C@@H](O)[C@@H](C)[C@H](O)[C@@H]1C [Compound 43]	0.03 µg/mL (≈ 0.0334 µM)	0.002 µg/mL (≈ 0.00222 µM)	2 µg/mL (≈ 2.22 µM)	0.5 µg/mL (≈ 0.556 µM)	>8 µg/mL
CO[C@H]1/C=C/O[C@@]2(C)Oc3c(C)c(O)c4c(=O)c(c5oc6cc(N7CC8CCC(C7)N8)cc(O)c6nc-5c4c3C2=O)NC(=O)/C(C)=C\C=C\[C@H](C)[C@H](O)[C@@H](C)[C@@H](O)[C@@H](C)[C@H](OC(C)=O)[C@@H]1C [Compound 10]	0.008 µg/mL (≈ 0.00878 µM)	0.00012 µg/mL (≈ 0.000132 µM)	1 µg/mL (≈ 1.1 µM)	2 µg/mL (≈ 2.2 µM)	>8 µg/mL
CCOC(=O)NCC1CCN(c2cc(O)c3nc4c5c6c7c(C)c(O)c5c(=O)c(c-4oc3c2)NC(=O)/C(C)=C\C=C\[C@H](C)[C@H](O)[C@@H](C)[C@@H](O)[C@@H](C)[C@H](O)[C@H](C)[C@@H](OC)/C=C/O[C@@](C)(O7)C6=O)CC1 [Compound 60]	0.008 µg/mL (≈ 0.00848 µM)	0.0005 µg/mL (≈ 0.00053 µM)	0.5 µg/mL (≈ 0.53 µM)	0.06 µg/mL (≈ 0.0636 µM)	>8 µg/mL
CCNC(=O)NC1CCN(c2cc(O)c3nc4c5c6c7c(C)c(O)c5c(=O)c(c-4oc3c2)NC(=O)/C(C)=C\C=C\[C@H](C)[C@H](O)[C@@H](C)[C@@H](O)[C@@H](C)[C@H](O)[C@H](C)[C@@H](OC)/C=C/O[C@@](C)(O7)C6=O)CC1 [Compound 37]	0.03 µg/mL (≈ 0.0323 µM)	0.004 µg/mL (≈ 0.00431 µM)	2 µg/mL (≈ 2.16 µM)	0.25 µg/mL (≈ 0.269 µM)	>8 µg/mL
CO[C@H]1/C=C/O[C@@]2(C)Oc3c(C)c(O)c4c(=O)c(c5sc6cc(N7CCOCC7)ccc6nc-5c4c3C2=O)NC(=O)/C(C)=C\C=C\[C@H](C)[C@H](O)[C@@H](C)[C@@H](O)[C@@H](C)[C@H](O)[C@@H]1C [Compound 132]	0.015 µg/mL (≈ 0.0178 µM)	0.001 µg/mL (≈ 0.00118 µM)	0.5 µg/mL (≈ 0.592 µM)	0.06 µg/mL (≈ 0.0711 µM)	4 µg/mL (≈ 4.74 µM)
CO[C@H]1/C=C/O[C@@]2(C)Oc3c(C)c(O)c4c(=O)c(c5oc6cc(N7CCC(NC(=O)OC(C)C)CC7)cc(O)c6nc-5c4c3C2=O)NC(=O)/C(C)=C\C=C\[C@H](C)[C@H](O)[C@@H](C)[C@@H](O)[C@@H](C)[C@H](O)[C@@H]1C [Compound 29]	0.008 µg/mL (≈ 0.00848 µM)	0.00012 µg/mL (≈ 0.000127 µM)	2 µg/mL (≈ 2.12 µM)	1 µg/mL (≈ 1.06 µM)	>8 µg/mL
CO[C@H]1/C=C/O[C@@]2(C)Oc3c(C)c(O)c4c(=O)c(c5oc6cc(N7CCC(C)(N(C)C)CC7)cc(O)c6nc-5c4c3C2=O)NC(=O)/C(C)=C\C=C\[C@H](C)[C@H](O)[C@@H](C)[C@@H](O)[C@@H](C)[C@H](OC(C)=O)[C@@H]1C [Compound 71]	0.008 µg/mL (≈ 0.0085 µM)	0.00012 µg/mL (≈ 0.000128 µM)	0.25 µg/mL (≈ 0.266 µM)	0.5 µg/mL (≈ 0.531 µM)	4 µg/mL (≈ 4.25 µM)
COCCOC(=O)NC1CCN(c2cc(O)c3nc4c5c6c7c(C)c(O)c5c(=O)c(c-4oc3c2)NC(=O)/C(C)=C\C=C\[C@H](C)[C@H](O)[C@@H](C)[C@@H](O)[C@@H](C)[C@H](O)[C@H](C)[C@@H](OC)/C=C/O[C@@](C)(O7)C6=O)CC1 [Compound 63]	0.008 µg/mL (≈ 0.00834 µM)	0.002 µg/mL (≈ 0.00209 µM)	1 µg/mL (≈ 1.04 µM)	0.25 µg/mL (≈ 0.261 µM)	8 µg/mL (≈ 8.34 µM)
CO[C@H]1/C=C/O[C@@]2(C)Oc3c(C)c(O)c4c(=O)c(c5oc6cc(N(C)CC(C)C)cc(O)c6nc-5c4c3C2=O)NC(=O)/C(C)=C\C=C\[C@H](C)[C@H](O)[C@@H](C)[C@@H](O)[C@@H](C)[C@H](O)[C@@H]1C [Compound 128]	0.015 µg/mL (≈ 0.0178 µM)	0.002 µg/mL (≈ 0.00237 µM)	0.5 µg/mL (≈ 0.592 µM)	0.5 µg/mL (≈ 0.592 µM)	>8 µg/mL
CO[C@H]1/C=C/O[C@@]2(C)Oc3c(C)c(O)c4c(=O)c(c5oc6cc(N7CCC(c8ccccc8)CC7)cc(O)c6nc-5c4c3C2=O)NC(=O)/C(C)=C\C=C\[C@H](C)[C@H](O)[C@@H](C)[C@@H](O)[C@@H](C)[C@H](OC(C)=O)[C@@H]1C [Compound 57]	0.008 µg/mL (≈ 0.00833 µM)	0.0005 µg/mL (≈ 0.000521 µM)	2 µg/mL (≈ 2.08 µM)	0.5 µg/mL (≈ 0.521 µM)	8 µg/mL (≈ 8.33 µM)
COC1C=COC2(C)Oc3c(C)c(O)c4c(=O)c(c5n(C)c6cc(N7CC(C)NC(C)C7)ccc6nc-5c4c3C2=O)NC(=O)C(C)=CC=CC(C)C(O)C(C)C(O)C(C)C(O)C1C (mixture of isomers) [Compound 97]	1 µg/mL	2 µg/mL	>8 µg/mL	4 µg/mL	>8 µg/mL
CO[C@H]1/C=C/O[C@@]2(C)Oc3c(C)c(O)c4c(=O)c(c5oc6cc(N7C[C@@H]8CCCN(C)[C@@H]8C7)cc(O)c6nc-5c4c3C2=O)NC(=O)/C(C)=C\C=C\[C@H](C)[C@H](O)[C@@H](C)[C@@H](O)[C@@H](C)[C@H](OC(C)=O)[C@@H]1C [Compound 58]	0.03 µg/mL (≈ 0.0319 µM)	0.004 µg/mL (≈ 0.00426 µM)	1 µg/mL (≈ 1.06 µM)	0.25 µg/mL (≈ 0.266 µM)	>8 µg/mL
CO[C@H]1/C=C/O[C@@]2(C)Oc3c(C)c(O)c4c(=O)c(c5oc6cc(N7CCCC7)c(F)cc6nc-5c4c3C2=O)NC(=O)/C(C)=C\C=C\[C@H](C)[C@H](O)[C@@H](C)[C@@H](O)[C@@H](C)[C@H](O)[C@@H]1C [Compound 123]	0.03 µg/mL (≈ 0.0361 µM)	0.06 µg/mL (≈ 0.0723 µM)	1 µg/mL (≈ 1.2 µM)	0.12 µg/mL (≈ 0.145 µM)	8 µg/mL (≈ 9.64 µM)
CO[C@H]1/C=C/O[C@@]2(C)Oc3c(C)c(O)c4c(=O)c(c5oc6cc(N7CCC(NS(=O)(=O)C(F)(F)F)CC7)cc(O)c6nc-5c4c3C2=O)NC(=O)/C(C)=C\C=C\[C@H](C)[C@H](O)[C@@H](C)[C@@H](O)[C@@H](C)[C@H](OC(C)=O)[C@@H]1C [Compound 23]	0.015 µg/mL (≈ 0.0145 µM)	0.00012 µg/mL (≈ 0.000116 µM)	4 µg/mL (≈ 3.88 µM)	2 µg/mL (≈ 1.94 µM)	>8 µg/mL
CO[C@H]1/C=C/O[C@@]2(C)Oc3c(C)c(O)c4c(=O)c(c5oc6c(C)c(N7CCCC7)cc(C)c6nc-5c4c3C2=O)NC(=O)/C(C)=C\C=C\[C@H](C)[C@H](O)[C@@H](C)[C@@H](O)[C@@H](C)[C@H](O)[C@@H]1C [Compound 119]	0.5 µg/mL (≈ 0.595 µM)	0.5 µg/mL (≈ 0.595 µM)	2 µg/mL (≈ 2.38 µM)	2 µg/mL (≈ 2.38 µM)	>8 µg/mL
CO[C@H]1/C=C/O[C@@]2(C)Oc3c(C)c(O)c4c(=O)c(c5oc6cc(N7CCC(C(N)=O)CC7)cc(O)c6nc-5c4c3C2=O)NC(=O)/C(C)=C\C=C\[C@H](C)[C@H](O)[C@@H](C)[C@@H](O)[C@@H](C)[C@H](O)[C@@H]1C [Compound 112]	0.03 µg/mL (≈ 0.0339 µM)	0.002 µg/mL (≈ 0.00226 µM)	1 µg/mL (≈ 1.13 µM)	0.25 µg/mL (≈ 0.282 µM)	>8 µg/mL
CCOC(=O)N1CCCC2CN(c3cc(O)c4nc5c6c7c8c(C)c(O)c6c(=O)c(c-5oc4c3)NC(=O)C(C)=CC=CC(C)C(O)C(C)C(O)C(C)C(OC(C)=O)C(C)C(OC)C=COC(C)(O8)C7=O)CC21 (stereo not shown) [Compound 40]	0.06 µg/mL (≈ 0.0602 µM)	0.008 µg/mL (≈ 0.00802 µM)	1 µg/mL (≈ 1 µM)	0.5 µg/mL (≈ 0.501 µM)	>8 µg/mL
